{"source": "patent US20150141336A1", "about": "“Pancreatic Peptide Compounds and Use” (Novo Nordisk A/S, priority 2012, published 2015)", "key": {"[1]": {"assay": "Assay (X) determination of effect on body weight in mice on high fat diet", "assay_type": "in vivo, C57B16J mice", "settings": "male C57 DIO mice, s.c., 0.3 μmol/kg once daily; FIG. 1", "description": "Additional assays useful to the invention comprise those that can determine the effect of PP peptides on body weight and/or body composition. An exemplary assay is the following which involves utilization of a diet induced obese male […] mouse model for metabolic disease: […] (Taconic, Denmark) on regular diurnal rhythm and with access to a high fat diet (D12492, Research Diet, USA) are used. The mice are weighed on a weekly basis. Mice are received at age 5 weeks and put on high fat diet and housed at 24 degree Celsius in normal daily rhythm. Mice are group housed 10 per cage during an obesity induction period of 14 weeks. Two weeks before study start mice are single housed (two mice per cage with a dividing wall between). […] Body weight for all mice is recorded daily in combination with dosing. […] Data are analysed in Graph Pad Prism. Change of body weight from baseline in male C57 DIO mice (mean±SEM, n=10) after s.c. administration of compound AF (0.03 μmol/kg once daily or 0.1 μmol/kg every other day) or the reference compound human PP(2-36) (0.3 μmol/kg, once daily) was determined using Assay (X). […] Change of body weight (mean±SEM, n=10-12) and change of body weight from baseline (mean±SEM, n=10) in male […] mice on a high fat diet after administration of vehicle, compound BN (1 μmol/kg/day, s.c.) or reference compound 1 (500 nmol/kg/day, pump) was determined using Assay (X)."}, "[2]": {"settings": "human, in vivo; cited from earlier work"}, "[3]": {"settings": "minipig, in vivo; cited from earlier work"}, "[4]": {"assay": "Assay (II) PK i.v. minipig, in vivo half-life", "set-up": "species or system Göttingen mini-pigs", "settings": "male, Göttingen, minipig, iv, Half-life minipig, Assay (II)", "how_it_was_run": "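Male Göttingen mini-pigs (18–22 kg, n=5) received 6 nmol/kg i.v. via central catheter, formulated in 50 mM K2HPO4, 0.05% tween 80, pH 8.0. EDTA plasma sampled pre-dose to 240 h, quantified by TFC/LC/MS/MS (MRM, range 1-2000 nmol/l); half-life from non-compartmental analysis per animal.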"}}, "note": "Read-outs that look alike come from different tables or passages of the source.", "data": [{"smiles": "CC[C@H](C)[C@H](NC(=O)[C@H](Cc1ccc(O)cc1)NC(=O)[C@H](CCCNC(=N)N)NC(=O)[C@H](CCCNC(=N)N)NC(=O)[C@H](CC(C)C)NC(=O)[C@H](CC(=O)O)NC(=O)[C@H](C)NC(=O)[C@H](C)NC(=O)[C@H](Cc1ccc(O)cc1)NC(=O)[C@H](CCC(N)=O)NC(=O)[C@H](C)NC(=O)[C@H](CCSC)NC(=O)[C@H](CCC(N)=O)NC(=O)[C@H](CCC(=O)O)NC(=O)[C@@H]1CCCN1C(=O)[C@@H](NC(=O)[C@H](C)NC(=O)[C@H](CC(N)=O)NC(=O)[C@H](CC(=O)O)NC(=O)CNC(=O)[C@@H]1CCCN1C(=O)[C@H](Cc1ccc(O)cc1)NC(=O)[C@@H](NC(=O)[C@@H]1CCCN1C(=O)[C@H](CCC(=O)O)NC(=O)[C@H](CC(C)C)NC(=O)[C@@H]1CCCN1C(=O)[C@H](C)N)C(C)C)[C@@H](C)O)C(=O)N[C@@H](CC(N)=O)C(=O)N[C@@H](CCSC)C(=O)N[C@@H](CC(C)C)C(=O)N[C@H](C(=O)N[C@@H](CCCNC(=N)N)C(=O)N1CCC[C@H]1C(=O)N[C@@H](CCCNC(=N)N)C(=O)N[C@@H](Cc1ccc(O)cc1)C(N)=O)[C@@H](C)O", "note": "[PP(2-36)]", "values": [{"measurement": "Change of body weight from baseline", "setting": "[1]", "value": "reduction in body weight"}]}, {"smiles": "CC[C@H](C)[C@H](NC(=O)[C@H](Cc1ccc(O)cc1)NC(=O)[C@H](CCCNC(=N)N)NC(=O)[C@H](CCCNC(=N)N)NC(=O)[C@H](CC(C)C)NC(=O)[C@H](CC(=O)O)NC(=O)[C@H](C)NC(=O)[C@H](C)NC(=O)[C@H](Cc1ccc(O)cc1)NC(=O)[C@H](CCC(N)=O)NC(=O)[C@H](C)NC(=O)[C@H](CCSC)NC(=O)[C@H](CCC(N)=O)NC(=O)[C@H](CCC(=O)O)NC(=O)[C@@H]1CCCN1C(=O)[C@@H](NC(=O)[C@H](C)NC(=O)[C@H](CC(N)=O)NC(=O)[C@H](CC(=O)O)NC(=O)CNC(=O)[C@@H]1CCCN1C(=O)[C@H](Cc1ccc(O)cc1)NC(=O)[C@@H](NC(=O)[C@@H]1CCCN1C(=O)[C@H](CCC(=O)O)NC(=O)[C@H](CC(C)C)NC(=O)[C@@H]1CCCN1C(=O)[C@H](C)N)C(C)C)[C@@H](C)O)C(=O)N[C@@H](CC(N)=O)C(=O)N[C@@H](CCSC)C(=O)N[C@@H](CC(C)C)C(=O)N[C@H](C(=O)N[C@@H](CCCNC(=N)N)C(=O)N1CCC[C@H]1C(=O)N[C@@H](CCCNC(=N)N)C(=O)N[C@@H](Cc1ccc(O)cc1)C(N)=O)[C@@H](C)O", "note": "[PP]", "values": [{"measurement": "half-life", "setting": "[2]", "value": "approximately 10 minutes"}]}, {"smiles": "CC[C@H](C)[C@H](NC(=O)[C@H](Cc1ccc(O)cc1)NC(=O)[C@H](CCCNC(=N)N)NC(=O)[C@H](CCCNC(=N)N)NC(=O)[C@H](CC(C)C)NC(=O)[C@H](CC(=O)O)NC(=O)[C@H](C)NC(=O)[C@H](C)NC(=O)[C@H](Cc1ccc(O)cc1)NC(=O)[C@H](CCC(N)=O)NC(=O)[C@H](C)NC(=O)[C@H](CCSC)NC(=O)[C@H](CCC(N)=O)NC(=O)[C@H](CCC(=O)O)NC(=O)[C@@H]1CCCN1C(=O)[C@@H](NC(=O)[C@H](C)NC(=O)[C@H](CC(N)=O)NC(=O)[C@H](CC(=O)O)NC(=O)CNC(=O)[C@@H]1CCCN1C(=O)[C@H](Cc1ccc(O)cc1)NC(=O)[C@@H](NC(=O)[C@@H]1CCCN1C(=O)[C@H](CCC(=O)O)NC(=O)[C@H](CC(C)C)NC(=O)[C@@H]1CCCN1C(=O)[C@H](C)N)C(C)C)[C@@H](C)O)C(=O)N[C@@H](CC(N)=O)C(=O)N[C@@H](CCSC)C(=O)N[C@@H](CC(C)C)C(=O)N[C@H](C(=O)N[C@@H](CCCNC(=N)N)C(=O)N1CCC[C@H]1C(=O)N[C@@H](CCCNC(=N)N)C(=O)N[C@@H](Cc1ccc(O)cc1)C(N)=O)[C@@H](C)O", "note": "[PP(3-36)]", "values": [{"measurement": "half-life", "setting": "[3]", "value": "less than 30 minutes"}]}, {"smiles": "CC[C@H](C)[C@H](NC(=O)[C@H](Cc1ccc(O)cc1)NC(=O)[C@H](CCCNC(=N)N)NC(=O)[C@H](CCCNC(=N)N)NC(=O)[C@H](CC(C)C)NC(=O)[C@H](CC(=O)O)NC(=O)[C@H](C)NC(=O)[C@H](C)NC(=O)[C@H](Cc1ccc(O)cc1)NC(=O)[C@H](CCC(N)=O)NC(=O)[C@H](C)NC(=O)[C@H](CCSC)NC(=O)[C@H](CCC(N)=O)NC(=O)[C@H](CCC(=O)O)NC(=O)[C@@H]1CCCN1C(=O)[C@@H](NC(=O)[C@H](CCCCNC(=O)COCCOCCNC(=O)COCCOCCNC(=O)CC[C@H](NC(=O)CCCCCCCCCCCCCCCCC(=O)O)C(=O)O)NC(=O)[C@H](CC(N)=O)NC(=O)[C@H](CC(=O)O)NC(=O)CNC(=O)[C@@H]1CCCN1C(=O)[C@H](Cc1ccc(O)cc1)NC(=O)[C@@H](NC(=O)[C@@H]1CCCN1C(=O)[C@H](CCC(=O)O)NC(=O)[C@@H](N)CC(C)C)C(C)C)[C@@H](C)O)C(=O)N[C@@H](CC(N)=O)C(=O)N[C@@H](CCSC)C(=O)N[C@@H](CC(C)C)C(=O)N[C@H](C(=O)N[C@@H](CCCNC(=N)N)C(=O)N1CCC[C@H]1C(=O)N[C@@H](CCCNC(=N)N)C(=O)N[C@@H](Cc1ccc(O)cc1)C(N)=O)[C@@H](C)O", "note": "[Compound BD]", "values": [{"measurement": "half-life", "setting": "[4]", "value": 17, "unit": "h"}]}]}
